Source: patent US20230348424A1, “HETEROCYCLIC COMPOUNDS AND METHODS OF USE” (Schrödinger, Inc., priority 2022, published 2023)

Experiments:
[1] = biological target: SOS1:KRAS (G12C) interaction (Homo sapiens (Human), UniProt Q07889); assay: SOS1 KRas(G12C) FRET Assay; format: binding; settings: 0.5 nM His10-SOS1 (res. 564-1049), 2.5 nM GST-KRAS G12C (res. 1-169), 2 hrs at RT
Procedure, shortened: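 GST-KRAS G12C (res. 1-169) at 2.5 nM and His10-SOS1 (res. 564-1049) at 0.5 nM, final, in PBS with 0.1% BSA, 5 mM MgCl2, 100 mM KF, 5 mM DTT and 0.5% DMSO. After 2 h at RT, FRET read at 665/615 nm and normalized to DMSO and no-SOS1 controls. IC50 by non-linear regression.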

human SOS1 = human SOS1 (Homo sapiens (Human), UniProt Q07889); assay: Surface Plasmon Resonance (SPR) SOS1 Binding Assay; settings: biotinylated SOS1 (res. 564-1049), Biacore 8K, 25° C., kinetic or steady state fit, 1:1 binding; read-out: hSOS1 KD
human SOS1, sequence (Q07889 564-1049): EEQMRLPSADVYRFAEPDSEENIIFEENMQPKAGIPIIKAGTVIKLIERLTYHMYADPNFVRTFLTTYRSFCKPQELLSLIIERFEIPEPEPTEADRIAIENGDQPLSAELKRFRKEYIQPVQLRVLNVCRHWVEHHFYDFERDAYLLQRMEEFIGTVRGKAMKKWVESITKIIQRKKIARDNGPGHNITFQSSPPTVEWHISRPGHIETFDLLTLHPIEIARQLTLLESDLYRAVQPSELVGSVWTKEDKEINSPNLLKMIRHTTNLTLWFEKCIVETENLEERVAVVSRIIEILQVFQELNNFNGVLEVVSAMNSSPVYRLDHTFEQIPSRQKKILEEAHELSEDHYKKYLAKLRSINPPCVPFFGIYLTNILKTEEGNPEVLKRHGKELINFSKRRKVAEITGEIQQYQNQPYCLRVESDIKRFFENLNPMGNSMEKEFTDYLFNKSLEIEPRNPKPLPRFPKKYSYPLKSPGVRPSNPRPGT
Procedure, shortened: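 Biotinylated Avi-tagged human SOS1 (res. 564-1049) captured on streptavidin chip (~3,000 RU); compounds injected 60 s, dissociation 600 s, at 25° C in Tris pH 8.0 buffer with 5% DMSO. Reference- and blank-subtracted; KD from kinetic or steady-state 1:1 binding fit.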

SOS1:KRAS (G12C) interaction, sequence (Q07889 564-1049, stated change not applied): as the sequence (Q07889 564-1049) above

| IC50 [1] | Kd (human SOS1) | SMILES |
| --- | --- | --- |
| 17.4 nM | 9 nM | C[C@@H](NC(=O)c1cn(C2CCOC(C)(C)C2)c(=O)cc1N[C@H]1[C@@H]2CN(C)C[C@@H]21)c1cccc(C(F)F)c1F (stereo partly drawn) [Example 122, N-((R)-1-(3-(difluoromethyl)-2-fluorophenyl)ethyl)-1-(2,2-dimethyltetrahydro-2H-pyran-4-yl)-4-(((1R,5S,6s)-3-methyl-3-azabicyclo[3.1.0]hexan-6-yl)amino)-6-oxo-1,6-dihydropyridine-3-carboxamide] |
| 23.1 nM | 15 nM | C[C@@H](NC(=O)c1cn(C2CCC(F)(F)CC2)c(=O)cc1N[C@H]1[C@@H]2CN(C)C[C@@H]21)c1cccc(C(F)F)c1F [Example 123, 1-(4,4-difluorocyclohexyl)-N-((R)-1-(3-(difluoromethyl)-2-fluorophenyl)ethyl)-4-(((1R,5S,6s)-3-methyl-3-azabicyclo[3.1.0]hexan-6-yl)amino)-6-oxo-1,6-dihydropyridine-3-carboxamide] |
| 27.7 nM | 13 nM | C[C@@H](NC(=O)c1cn(C2(C(F)F)CC2)c(=O)cc1N[C@H]1C[C@@H]2CN(C)C[C@@H]2C1)c1cccc(C(F)F)c1F [Example 125, N-((R)-1-(3-(difluoromethyl)-2-fluorophenyl)ethyl)-1-(1-(difluoromethyl)cyclopropyl)-4-(((3aR,5s,6aS)-2-methyloctahydrocyclopenta[c]pyrrol-5-yl)amino)-6-oxo-1,6-dihydropyridine-3-carboxamide] |
| 4.4 nM | 2 nM | C[C@@H](NC(=O)c1cn(C2CC3(C2)CC(F)(F)C3)c(=O)cc1N[C@@H]1CCN(C)C[C@@H]1F)c1cccc(C(F)F)c1F [Example 126, N-((R)-1-(3-(difluoromethyl)-2-fluorophenyl)ethyl)-1-(6,6-difluorospiro[3 .3]heptan-2-yl)-4-(((3S,4R)-3-fluoro-1-methylpiperidin-4-yl)amino)-6-oxo-1,6-dihydropyridine-3-carboxamide] |
| 3 nM | 3 nM | C[C@@H](NC(=O)c1cn(C2CC3(C2)CC(F)(F)C3)c(=O)cc1N[C@H]1CCN(C)C[C@H]1F)c1cccc(C(F)F)c1F [Example 127, N-((R)-1-(3-(difluoromethyl)-2-fluorophenyl)ethyl)-1-(6,6-difluorospiro[3 .3]heptan-2-yl)-4-(((3R,4S)-3-fluoro-1-methylpiperidin-4-yl)amino)-6-oxo-1,6-dihydropyridine-3-carboxamide] |
| 8.2 nM | 3 nM | C[C@@H](NC(=O)c1cn([C@@H]2CCOC[C@H]2F)c(=O)cc1N[C@H]1[C@@H]2CN(C)C[C@@H]21)c1cccc(C(F)F)c1F [Example 128, N-((R)-1-(3-(difluoromethyl)-2-fluorophenyl)ethyl)-1-((3S,4R)-3-fluorotetrahydro-2H-pyran-4-yl)-4-(((1R,5S,6s)-3-methyl-3-azabicyclo[3.1.0]hexan-6-yl)amino)-6-oxo-1,6-dihydropyridine-3-carboxamide] |
| 25 nM | 8 nM | C[C@@H](NC(=O)c1cn([C@H]2CCOC[C@@H]2F)c(=O)cc1N[C@H]1[C@@H]2CN(C)C[C@@H]21)c1cccc(C(F)F)c1F [Example 129, N-((R)-1-(3-(difluoromethyl)-2-fluorophenyl)ethyl)-1-((3R,4S)-3-fluorotetrahydro-2H-pyran-4-yl)-4-(((1R,5S,6s)-3-methyl-3-azabicyclo[3.1.0]hexan-6-yl)amino)-6-oxo-1,6-dihydropyridine-3-carboxamide] |
| 26.7 nM | 23 nM | C[C@@H](NC(=O)c1cn(C2(C(F)F)CC2)c(=O)cc1N[C@H]1[C@@H]2CN(C)C[C@@H]21)c1cccc(C(F)(F)F)c1F [Example 130, 1-(1-(difluoromethyl)cyclopropyl)-N-((R)-1-(2-fluoro-3-(trifluoromethyl)phenyl)ethyl)-4-(((1R,5S,6s)-3-methyl-3-azabicyclo[3.1.0]hexan-6-yl)amino)-6-oxo-1,6-dihydropyridine-3-carboxamide] |
